{"source": "patent US20050124631A1", "about": "“Inhibitors of polyq-aggregation” (priority 2001, published 2005)"}
{"smiles": "Cc1ccc(Cl)c2sc(N)nc12", "note": "[Example 2, 2-Amino-7-chloro-4-methylbenzothiazole]", "values": [{"measurement": "melting point", "value": 206, "unit": "°C"}]}
